Measurements: article PMC8399180, “Bioactive Polyketide and Diketopiperazine Derivatives from the Mangrove-Sediment-Derived Fungus Aspergillus sp. SCSIO41407” (Molecules, 2021)
≈ marks a conversion by molar mass, not a printed value.

Key:
[1] = test system: LPS-induced NF-κB activation in RAW264.7 cells; experiment: Inhibition of LPS-induced NF-κB activation in RAW264.7 cells (luciferase reporter gene assay); format: cell-based; conditions: for Inhibitory activity against LPS-induced NF-κB activation: compounds at 10 μM, 5 μg/mL LPS for 8 h; for IC50: Mus musculus, luciferase reporter
Experimental: The inhibitory activities of LPS-induced NF-κB activation in RAW264.7 cells was evaluated as detected by luciferase reporter gene assay as described previously. In brief, the RAW264.7 cells stably transfected with a luciferase reporter gene were plated in 96-well plates and then pretreated with testd compounds (10 μM) and BAY11-7082 (NF-κB inhibitor as positive control, 5 μM, Sigma-Aldrich) for 30 min, followed by 5 μg/mL LPS stimulation for 8 h. Cells were harvested, and luciferase activities of the triplicate tests were measured using the luciferase assay system (Promega, Madison, WI, USA).

[2] = test system: methicillin-resistant Staphylococcus aureus (MRSA); experiment: Antibacterial activity against MRSA (broth microdilution); format: cell-based
Experimental: The cytotoxicity of 1–8 and 10–15 against the A549 cell line was preliminarily evaluated via the MTT method as reported in our previous study, and the antibacterial activities of 1–15 against six bacterial strains, Acinetobacter baumannii (ATCC 19606), Staphylococcus aureus (ATCC 29213), Enterococcus faecalis (ATCC 29212), Klebsiella pneumoniae (ATCC 13883), MRSA, and Escherichia coli (ATCC 25922), were evaluated using a modification of the broth microdilution method.

[3] = Cytotoxicity against A549 cell line (MTT method); format: cell-based; conditions: human, A549 cells, read-out: Cytotoxic Activities A549 (IC50)
[4] = molecular target: acetylcholinesterase (AChE) (Homo sapiens, UniProt P22303); experiment: AChE inhibitory activity (modified Ellman method); format: biochemical; conditions: 0.1 U/mL AChE, pH 8.0, 30 °C; read-out: AChE inhibition IC50
Experimental: AChE inhibitory activity was evaluated in vitro according to the modified Ellman method. Briefly, 0.1 U/mL AChE solution was prepared by dissolving in phosphate buffer (pH 8.0). The test sample and enzyme buffer were mixed in 96-well plates and incubated for 20 min at 30 °C. Then, 5,5′-dithiobis (2-nitrobenzoic acid) and acetylthiocholine iodide were added, and the enzyme reaction was allowed to proceed for 30 min at 30 °C. AChE activity was determined by measuring the degradation of acetylthiocholine iodide to thiocholine and acetic acid at 405 nm using a microplate reader.

[5] = test system: RANKL-induced osteoclast differentiation in bone marrow macrophages cells (BMMCs); experiment: RANKL-induced osteoclast differentiation in BMMCs (TRAP staining); format: cell-based; conditions: 5 μM, 3 days, TRAP-positive multinucleated cells
Experimental: Then, the cells were fixed and stained for TRAP activity and the images were photographed using an inverted microscope (Nikon, Tokyo, Japan). Data are expressed as the mean ± SD and analyzed using GraphPad Prism 7.0 software (GraphPad, San Diego, CA, USA). Statistical differences among groups were performed using one-way analysis of variance with a Bonferroni post-hoc test. A p-value of < 0.05 was considered statistically significant.

Chain of acetylcholinesterase (AChE) (P22303 32-614, species assumed): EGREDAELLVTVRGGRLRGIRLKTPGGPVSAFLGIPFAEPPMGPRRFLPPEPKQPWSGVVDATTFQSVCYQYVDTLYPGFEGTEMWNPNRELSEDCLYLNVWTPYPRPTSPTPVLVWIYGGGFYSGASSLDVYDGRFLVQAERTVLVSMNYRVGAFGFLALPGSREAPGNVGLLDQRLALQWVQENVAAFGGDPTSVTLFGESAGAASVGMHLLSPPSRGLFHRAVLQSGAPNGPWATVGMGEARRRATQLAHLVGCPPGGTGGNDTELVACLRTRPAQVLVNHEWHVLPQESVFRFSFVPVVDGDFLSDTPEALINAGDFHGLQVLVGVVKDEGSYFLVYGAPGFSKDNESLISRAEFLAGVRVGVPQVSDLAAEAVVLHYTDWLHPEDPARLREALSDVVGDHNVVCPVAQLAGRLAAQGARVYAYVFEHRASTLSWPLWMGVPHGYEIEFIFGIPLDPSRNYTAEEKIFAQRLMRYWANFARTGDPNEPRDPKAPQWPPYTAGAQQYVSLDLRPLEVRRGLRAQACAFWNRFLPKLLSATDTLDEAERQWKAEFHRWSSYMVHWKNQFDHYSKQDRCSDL

| Molecule | Inhibitory activity against LPS-induced NF-κB activation [1] | IC50 [4] [µM] | further results |
| --- | --- | --- | --- |
| C/C=C/C(=O)Cc1cc(O)c(C)c(O)c1C=O [Compound 1, (E)-2,4-dihydroxy-3-methyl-6-(2-oxopent-3-en-1-yl) benzaldehyde] | obvious inhibitory activities | – | – |
| Cc1cc(=O)c2c(O)c(C)c(O)cc2o1 [Compound 2, eugenitol] | – | – | MIC ([2]; Staphylococcus aureus, read-out: Antibacterial Activities MRSA (MIC)): 485 µM (≈ 100 µg/mL) |
| CCCCCCCc1c(O)cc(CC=C(C)C)c(O)c1C=O [Compound 3, flavoglaucin] | – | 23.9 | IC50 [3]: 22.2 µM |
| C/C=C/C=C/CCc1c(O)cc(CC=C(C)C)c(O)c1C=O [Compound 4, isodihydroauroglaucin] | – | 490 | – |
| CCCCC/C=C/c1c(O)cc(CC=C(C)C)c(O)c1C=O [Compound 5, tetrahydroauroglaucin] | – | 39.9 | – |
| CCC/C=C/C=C/c1c(O)cc(CC=C(C)C)c(O)c1C=O [Compound 6, dihydroauroglaucin] | – | 18.6 | – |
| C=CC(C)(C)c1[nH]c2ccccc2c1/C=C1\NC(=O)C(=O)NC1=O [Compound 10, neoechinulin E] | obvious inhibitory activities | – | – |
| C=CC(C)(C)c1[nH]c2ccccc2c1/C=C1\NC(=O)C(C)(OC)NC1=O (stereo not drawn) [Compound 11, variecolorin H] | obvious inhibitory activities | – | IC50 [1]: 19.2 µM; Effect on RANKL-induced osteoclast differentiation [5]: suppressed RANKL-induced osteoclast differentiation |
| C=CC(C)(C)c1[nH]c2ccccc2c1/C=c1\[nH]c(=O)c(=C)[nH]c1=O [Compound 14, neoechinulin B] | obvious inhibitory activities | – | IC50 [1]: 8.7 µM; Effect on RANKL-induced osteoclast differentiation [5]: suppressed RANKL-induced osteoclast differentiation |
| Gentamycin [reference compound] | – | – | Antibacterial Activities MRSA (MIC, μM) [2]: 1.4 µM |
